Literature values as cited in paper PMC5852599, “Microfluidic Devices for Drug Delivery Systems and Drug Screening” (Genes, 2018).

Tested on: breast cancer cells (Her-2)
Design: method as in PMID 20237849
Conditions: 3D tumor spheroid in alginate hydrogel, compared to 2D cell culture

## COc1cccc2c1C(=O)c1c(O)c3c(c(O)c1C2=O)C[C@@](O)(C(=O)CO)C[C@@H]3O[C@H]1C[C@H](N)[C@H](O)[C@H](C)O1 [doxorubicin]
  effectiveness on cell viability and proliferation: lower effectiveness
